Experimental data from US7638540B2, “Benzofuran compound and medicinal composition containing the same” (The New Industry Research Organization, priority 2003, dated 2009).

Structure (SMILES) | melting point [°C]
CCN(CC)C(=O)/C=C(\C)c1ccc2oc(C(=O)Nc3cccc(OC)c3)c(NC(=O)/C(C#N)=C(/C)O)c2c1 [Example 189, 3-(2-cyano-3-hydroxy-(Z)-2-butenoylamino)-5-((E)-2-diethylcarbamoyl-1-methylvinyl)-benzofurane-2-carboxylic acid(3-methoxyphenyl)amide] | 172 to 174
CC(=O)c1oc2ccc(Br)cc2c1NC(=O)/C(C#N)=C(/C)O [Example 96, (Z)-N-(2-acetyl-5-bromobenzofuran-3-yl)-2-cyano-3-hydroxy-2-butenamide] | 221.9 to 222.4
COc1ccc2oc(-c3csc(-c4ccccc4)n3)c(-c3ccc(Cl)cc3)c2c1 [Example 215, 4-[3-(4-chlorophenyl)-5-methoxybenzofuran-2-yl]-2-phenylthiazole] | 151.3 to 153.3
C/C(O)=C(\C#N)C(=O)Nc1c(C(=O)O)oc2ccccc12 [Example 92, (Z)-3-(2-cyano-3-hydroxy-2-butenoylamino)benzofurane-2-carboxylic acid] | 196.3 to 196.6
CCN(CC)C(=O)/C=C(\C)c1ccc2oc(C(=O)c3ccc(C#N)cc3)c(NC(=O)c3cnoc3C)c2c1 [Example 89, (E)-N-[2-(4-cyanobenzoyl)-5-(2-diethylcarbamoyl-1-methylvinyl)benzofuran-3-yl]-5-methylisoxazole-4-carboxamide] | 202.6 to 205.5
C/C(O)=C(\C#N)C(=O)Nc1c(C#N)oc2ccccc12 [Example 105, (Z)-N-(2-cyanobenzofuran-3-yl)-2-cyano-3-hydroxy-2-butenamide] | 165.8 to 167.2
Cc1nc(-c2oc3c(Cl)cccc3c2-c2ccc(Cl)cc2)cs1 [Example 214, 4-[7-chloro-3-(4-chlorophenyl)benzofuran-2-yl]-2-methylthiazole] | 156.4 to 158.4
C/C=C/C(=O)Nc1c(C(C)=O)oc2ccc(Br)cc12 [Example 123, (E)-N-(2-acetyl-5-bromobenzofuran-3-yl)-2-butenamide] | 127.8 to 130
COc1ccc2oc(-c3csc(NC(=O)c4cnoc4C)n3)c(-c3ccc(Cl)cc3)c2c1 [Example 220, 5-methylisoxazole-4-carboxylic acid {4-[3-(4-chlorophenyl)-5-methoxybenzofuran-2-yl]thiazol-2-yl}amide] | 216.8 to 218.7
CC(=O)c1oc2ccc(Br)cc2c1NC(=O)c1cnoc1C [Example 65, N-(2-acetyl-5-bromobenzofuran-3-yl)-5-methylisoxazole-4-carboxamide] | 206 to 208
COc1ccc(NC(=O)/C=C(/C)c2cc3cccc(OC(c4ccccc4)c4ccccc4)c3o2)cc1OC [Example 43, (Z)-3-(7-benzhydryloxybenzofuran-2-yl)-N-(3,4-dimethoxyphenyl)-2-butenamide] | 93.9 to 94.5
CC(=O)c1oc2ccc(/C(C)=C/C(=O)N3CCOCC3)cc2c1N [Example 23, (E)-3-(2-acetyl-3-aminobenzofuran-5-yl)-1-morpholino-2-buten-1-one] | 256.4 to 262.1
Cc1oncc1C(=O)Nc1c(C#N)oc2ccccc12 [Example 86, N-(2-cyanobenzofuran-3-yl)-5-methylisoxazole-4-carboxamide] | 227.3 to 230.4
COc1ccc(CCNC(=O)/C=C(\C)c2ccc(C(=O)c3oc4c(OC)cccc4c3NC(=O)c3cnoc3C)cc2)cc1OC [Example 84, (E)-N-[2-(4-{2-[2-(3,4-dimethoxyphenyl)ethylcarbamoyl]-1-methylvinyl}benzoyl)-7-methoxybenzofuran-3-yl]-5-methylisoxazole-4-carboxamide] | 237.5 to 239.1
COc1cccc2c(NC(=O)/C=C/c3ccccc3)c(C(=O)c3ccc(Br)cc3)oc12 [Example 179, (E)-N-[2-(4-bromobenzoyl)-7-methoxybenzofuran-3-yl]-3-phenylacrylamide] | 236.5 to 237.8
COc1ccc(CCNC(=O)/C=C(\C)c2ccc3oc(C(C)=O)c(NC(=O)/C(C#N)=C(/C)O)c3c2)cc1OC [Example 103, N-(2-acetyl-5-{(E)-2-[2-(3,4-dimethoxyphenyl)ethylcarbamoyl]-1-methylvinyl}benzofuran-3-yl)-2-cyano-3-hydroxy-(Z)-2-butenamide] | 176.7 to 179.7
CCN(CC)C(=O)/C=C(\C)c1ccc2oc(C(C)=O)c(NC(=O)c3cnoc3C)c2c1 [Example 74, (E)-N-[2-acetyl-5-(2-diethylcarbamoyl-1-methylvinyl)benzofuran-3-yl]-5-methylisoxazole-4-carboxamide] | 170.3 to 174.1
CC(=O)c1oc2ccc(/C(C)=C/C(=O)N3CCOCC3)cc2c1NC(=O)/C(C#N)=C(/C)O [Example 108, N-[2-acetyl-5-(1-methyl-3-morpholino-3-oxo-(E)-1-propenyl)benzofuran-3-yl]-2-cyano-3-hydroxy-(Z)-2-butenamide] | 206.9 to 208.6
COc1cccc2c(NC(=O)/C(C#N)=C(/C)O)c(C(C)=O)oc12 [Example 102, (Z)-N-(2-acetyl-7-methoxybenzofuran-3-yl)-2-cyano-3-hydroxy-2-butenamide] | 207.2 to 208.9

Next, values leading:

melting point [°C] | Structure (SMILES)
67 to 69.5 | CCOC(=O)CCCOc1cccc2cc(/C(Cl)=C/C=O)oc12 [Example 140, Ethyl 4-[2-(1-chloro-3-oxopropenyl)benzofuran-7-yloxy]-butyrate]
169.3 to 170.2 | CCNS(=O)(=O)c1ccc(OCCCC(=O)O)c2oc(C(C)NC(=O)/C(C#N)=C(\C)O)cc12 (stereo not drawn) [Example 129, (E)-4-{2-[1-(2-cyano-3-hydroxy-2-butenoylamino)ethyl]-4-ethylsulfamoylbenzofuran-7-yloxy}butyric acid]
104.7 to 107.7 | C/C=C/C(=O)NC(C)c1cc2cccc(OCCCCl)c2o1 (stereo not drawn) [Example 133, (E)-N-{1-[7-(3-chloropropoxy)benzofuran-2-yl]ethyl}-2-butenamide]
194.6 to 196.5 | CCOC(=O)/C=C(\C)c1ccc2oc(/C(Cl)=C/C=C/C(=O)N3CCOCC3)cc2c1 [Example 148, Ethyl 3-[2-(1-chloro-5-morpholin-4-yl-5-oxo-penta-(1Z,3E)-1,3-dienyl)benzofuran-5-yl]-(E)-2-butenoate]
98 to 100 | C/C=C/C(=O)NC(C)c1cc2ccccc2o1 (stereo not drawn) [Example 192, (E)-2-butenoic acid (1-(benzofuran-2-yl)ethyl)amide]
133.7 to 135.4 | CCOC(=O)C(CSCc1ccccc1)NC(=O)/C=C/C=C(\Cl)c1cc2cc(Br)ccc2o1 (stereo not drawn) [Example 64, Ethyl (2E,4Z)-3-benzylsulfanyl-2-[5-(5-bromobenzofuran-2-yl)-5-chloropenta-2,4-dienoylamino]propionate]
165.7 to 168 | C/C=C/C(=O)Nc1c(C(C)=O)oc2c(OC)cccc12 [Example 185, (E)-2-butenoic acid (2-acetyl-7-methoxybenzofuran-3-yl)amide]
170.7 to 172 | COc1ccc(/C=C/C(=O)c2oc3ccc(Br)cc3c2NC(=O)CCCl)cc1 [Example 195, (E)-N-{5-bromo-2-[3-(4-methoxyphenyl)-acryloyl]benzofuran-3-yl}-3-chloropropionamide]
95 to 99 | CCCCc1oc2ccccc2c1/C(C)=C/C(=O)NCCc1ccc(OC)c(OC)c1 [Example 157, (E)-3-(2-butylbenzofuran-3-yl)-2-butenoic acid [2-(3,4-dimethoxyphenyl)ethyl]amide]
116 to 117.5 | CCN(CC)C(=O)/C=C(\C)c1cc(Cl)cc2cc(C(C)=O)oc12 [Example 170, (E)-3-(2-acetyl-5-chloro-benzofuran-7-yl)-2-butenoic acid diethylamide]
179 to 185 | N#C/C=C/C=C(\Cl)c1cc2cc(Br)ccc2o1 [Example 154, (2E,4Z)-5-(5-bromobenzofuran-2-yl)-5-chloropenta-2,4-dienenitrile]
99.8 to 104 | Cc1oc2ccc(Br)cc2c1/C(Cl)=C/C=O [Example 151, (Z)-3-(5-bromo-2-methylbenzofuran-3-yl)-3-chloropropenal]
110.5 to 113.5 | CCN(CC)C(=O)/C=C(\C)c1ccc(OCCCSc2ccc(Cl)cc2)c2oc(C(C)=O)cc12 [Example 139, (E)-3-{2-acetyl-7-(3-(4-chlorophenylsulfanyl)propoxy)benzofuran-4-yl}-2-butenoic acid diethylamide]
109 to 113 | COc1ccc(CCNC(=O)/C=C(\C)c2cc3cccc(OC(C)c4ccccc4)c3o2)cc1OC (stereo not drawn) [Example 164, (E)-3-[7-(1-phenylethoxy)benzofuran-2-yl]-2-butenoic acid [2-(3,4-dimethoxyphenyl)ethyl]amide]
80.6 to 82.1 | CCN(CC)C(=O)/C=C(\C)c1ccc(OCCCCl)c2oc(C(C)=O)cc12 [Example 137, (E)-3-[2-acetyl-7-(3-chloropropoxy)benzofuran-4-yl]-2-butenoic acid diethylamide]
120 to 125 | COc1ccc(NC(=O)/C=C(\C)c2cc3cccc(OC(C)c4ccccc4)c3o2)cc1 (stereo not drawn) [Example 172, (E)-3-[7-(1-phenylethoxy)benzofuran-2-yl]-2-butenoic acid (4-methoxyphenyl)amide]
149 to 150 | COc1ccc(CCNC(=O)/C=C/C=C(\Cl)c2cc3cccc(OCCCCl)c3o2)cc1OC [Example 60, (2E,4Z)-5-chloro-5-[7-(3-chloropropoxy)benzofuran-2-yl]penta-2,4-dienoic acid [2-(3,4-dimethoxyphenyl)ethyl]amide]
201.8 to 205.9 | COc1ccc(NC(=O)c2cnoc2C)c2cc(C(C)=O)oc12 [Example 111, N-(2-acetyl-7-methoxybenzofuran-4-yl)-5-methylisoxazole-4-carboxamide]
121 to 123 | CCN(CC)C(=O)/C=C(\C)c1cc2c(Br)cc(Br)c(OCCCC(=O)O)c2o1 [Example 31, (E)-4-[4,6-dibromo-2-(2-diethylcarbamoyl-1-methylvinyl)benzofuran-7-yloxy]butyric acid]
185.4 to 186.6 | COc1cccc2cc(/C(Cl)=C/C=C/C(=O)N3CCOCC3)oc12 [Example 138, (2E,4Z)-5-chloro-5-(7-methoxybenzofuran-2-yl)-1-morpholin-4-ylpenta-2,4-dien-1-one]
